Here are results for eight molecules from US10259810B2, “N-sulfonylated pyrazolo[3,4-b]pyridin-6-carboxamides and method of use” (AbbVie S.à.r.l., priority 2015, dated 2019).

As usually defined, the EC50 is the concentration needed to bring the measured effect to its halfway point.

The target in assay [1] is T1, ΔF508-CFTR (Homo sapiens, UniProt P13569, DEL508-508).
T1 construct: host or cells: CFBE41o-, doxycycline-inducible
The assay is described as follows: CFTR cell surface levels using HRP-tagged ΔF508-CFTR expressing CFBE cells, in the presence of a co-corrector. The conditions noted are these: HRP-tagged ΔF508-CFTR CFBE cells, in the presence of 3 μM co-corrector; for EC50: read-out: EC50. The class given is cell-based. The gist of the method: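 Chemiluminescent read-out of surface HRP (15 min, dark) after PBS washes. Activity is normalized as 100×(sample−DMSO)/(3 μM co-corrector alone−DMSO).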

Assay [2] addresses T1, ΔF508-CFTR. The assay is described as follows: CFTR cell surface levels using HRP-tagged ΔF508-CFTR expressing CFBE cells, intrinsic corrector capacity. The format is cell-based. Also on record: % Activation: concentration or dose not given beside the values. The note with it: HRP-tagged ΔF508-CFTR expressing CFBE41o- cells, compound alone (intrinsic corrector capacity), 20 hours at 33° C.; for EC50: read-out: EC50. Summed up: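 Surface ΔF508-CFTR was measured as HRP chemiluminescence from an extracellular-loop-4 tag, expressed as percent activity between DMSO and a […] corrector control.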

T1 sequence (P13569 with tags, fused parts or gaps DEL508-508): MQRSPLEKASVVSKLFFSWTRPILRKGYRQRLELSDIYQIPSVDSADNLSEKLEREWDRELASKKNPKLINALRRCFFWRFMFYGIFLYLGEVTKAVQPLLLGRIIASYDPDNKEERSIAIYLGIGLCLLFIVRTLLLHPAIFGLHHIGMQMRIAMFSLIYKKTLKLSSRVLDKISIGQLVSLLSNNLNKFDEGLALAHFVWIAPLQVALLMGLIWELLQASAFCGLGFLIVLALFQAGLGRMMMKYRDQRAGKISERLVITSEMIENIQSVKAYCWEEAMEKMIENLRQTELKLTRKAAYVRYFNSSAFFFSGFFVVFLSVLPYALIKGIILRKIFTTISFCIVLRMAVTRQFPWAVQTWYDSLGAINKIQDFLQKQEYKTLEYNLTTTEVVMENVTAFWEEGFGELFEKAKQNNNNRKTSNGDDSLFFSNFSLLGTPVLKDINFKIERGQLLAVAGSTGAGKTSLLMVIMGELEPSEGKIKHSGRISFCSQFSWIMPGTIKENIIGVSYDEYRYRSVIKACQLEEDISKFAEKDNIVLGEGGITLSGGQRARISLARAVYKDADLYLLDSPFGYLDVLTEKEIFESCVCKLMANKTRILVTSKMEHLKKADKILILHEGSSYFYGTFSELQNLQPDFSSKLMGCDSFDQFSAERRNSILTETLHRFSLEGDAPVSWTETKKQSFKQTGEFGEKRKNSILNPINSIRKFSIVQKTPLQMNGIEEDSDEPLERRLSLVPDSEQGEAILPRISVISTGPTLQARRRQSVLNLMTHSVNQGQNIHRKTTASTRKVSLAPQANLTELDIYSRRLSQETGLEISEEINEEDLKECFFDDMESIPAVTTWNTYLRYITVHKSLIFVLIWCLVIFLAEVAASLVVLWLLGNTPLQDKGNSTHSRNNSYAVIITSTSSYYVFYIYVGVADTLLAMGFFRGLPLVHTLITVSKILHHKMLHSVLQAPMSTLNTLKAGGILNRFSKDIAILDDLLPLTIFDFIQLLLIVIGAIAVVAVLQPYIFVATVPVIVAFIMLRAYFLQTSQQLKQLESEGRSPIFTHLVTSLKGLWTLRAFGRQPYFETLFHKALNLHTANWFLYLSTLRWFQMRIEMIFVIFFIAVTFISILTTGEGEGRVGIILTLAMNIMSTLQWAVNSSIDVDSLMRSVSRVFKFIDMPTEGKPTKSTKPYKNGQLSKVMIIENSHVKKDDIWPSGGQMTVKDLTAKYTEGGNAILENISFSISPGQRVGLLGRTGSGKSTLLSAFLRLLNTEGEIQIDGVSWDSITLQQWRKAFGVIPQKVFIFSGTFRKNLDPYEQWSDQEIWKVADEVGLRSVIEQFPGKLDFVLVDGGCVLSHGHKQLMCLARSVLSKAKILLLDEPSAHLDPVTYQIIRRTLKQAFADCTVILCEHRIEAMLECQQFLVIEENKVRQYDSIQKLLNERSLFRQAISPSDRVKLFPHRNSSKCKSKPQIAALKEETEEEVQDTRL

Turning to `CCS(=O)(=O)NC(=O)c1cc(-c2cnc(N(C)C)nc2)c2c(C)nn(C3CCCCC3)c2n1` [Compound 50, 1-cyclohexyl-4-[2-(dimethylamino)pyrimidin-5-yl]-N-(ethanesulfonyl)-3-methyl-1H-pyrazolo[3,4-b]pyridine-6-carboxamide], the figures for the “% Activation” value at ΔF508-CFTR [1] and on ΔF508-CFTR [2] were 300% and 109.8%, respectively. The concentration giving a half-maximal response (EC50) is 1080 nM on ΔF508-CFTR [1] and 1680 nM at ΔF508-CFTR [2].
For `CC(C)c1nn(C2CCCCC2)c2nc(C(=O)NS(C)(=O)=O)cc(-c3ccc(N(C)C4CCOCC4)nc3)c12` [Compound 51, 1-cyclohexyl-N-(methanesulfonyl)-4-{6-[methyl(oxan-4-yl)amino]pyridin-3-yl}-3-(propan-2-yl)-1H-pyrazolo[3,4-b]pyridine-6-carboxamide] the same measures were 420.67%, 172.4%, 312 nM and 457 nM.
For the molecule `CCS(=O)(=O)NC(=O)c1cc(-c2cnc(N(C)C)nc2)c2c(C3CN(C(=O)OC)C3)nn(C3CCCCC3)c2n1` [Compound 52, methyl 3-{1-cyclohexyl-4-[2-(dimethylamino)pyrimidin-5-yl]-6-[(ethanesulfonyl)carbamoyl]-1H-pyrazolo[3,4-b]pyridin-3-yl}azetidine-1-carboxylate], on ΔF508-CFTR [1], the “% Activation” value came to 257.85% and the EC50 was determined as 992 nM. On ΔF508-CFTR [2], the “% Activation” value stood at 75.755% and the EC50 was 1150 nM.
As for `CC(C)c1nn(-c2cccc(N(C)C)c2)c2nc(C(=O)NS(C)(=O)=O)cc(-c3ccc(N4CCOCC4)nc3)c12` [Compound 53, 1-[3-(dimethylamino)phenyl]-N-(methanesulfonyl)-4-[6-(morpholin-4-yl)pyridin-3-yl]-3-(propan-2-yl)-1H-pyrazolo[3,4-b]pyridine-6-carboxamide], on ΔF508-CFTR [1], the “% Activation” value is listed as 572.78% and the EC50 stood at 647 nM. On ΔF508-CFTR [2], the “% Activation” value came to 376.8% and the EC50 was 671 nM.
The like results for `CCS(=O)(=O)NC(=O)c1cc(-c2ccc(N3CCOCC3)nc2)c2c(C(C)C)nn(-c3cccc(N(C)C)c3)c2n1` [Compound 54, 1-[3-(dimethylamino)phenyl]-N-(ethanesulfonyl)-4-[6-(morpholin-4-yl)pyridin-3-yl]-3-(propan-2-yl)-1H-pyrazolo[3,4-b]pyridine-6-carboxamide] were, in that order, 593.12%, 464 nM, 386.92% and 780 nM.
For the molecule `CC(C)c1nn(C2CCCC2)c2nc(C(=O)NS(C)(=O)=O)cc(-c3ccc(N(C)C)nc3)c12` [Compound 55, 1-cyclopentyl-4-[6-(dimethylamino)pyridin-3-yl]-N-(methanesulfonyl)-3-(propan-2-yl)-1H-pyrazolo[3,4-b]pyridine-6-carboxamide], at ΔF508-CFTR [1], the “% Activation” value amounted to 341.65% and the EC50 amounted to 1050 nM. On ΔF508-CFTR [2], the “% Activation” value came out at 126.75% and the EC50 turned out to be 1220 nM.
As to `CCS(=O)(=O)NC(=O)c1cc(-c2ccc(N(C)C)nc2)c2c(C(C)C)nn(C3CCCC3)c2n1` [Compound 56, 1-cyclopentyl-4-[6-(dimethylamino)pyridin-3-yl]-N-(ethanesulfonyl)-3-(propan-2-yl)-1H-pyrazolo[3,4-b]pyridine-6-carboxamide], on ΔF508-CFTR [1], the “% Activation” value is on record as 336.75% and the EC50 amounted to 838 nM. For the same molecule, at ΔF508-CFTR [2], the “% Activation” value is recorded as 122.1% and the EC50 is 1180 nM.
For `Cc1nn(-c2cccc(C(F)(F)F)c2)c2nc(C(=O)NS(C)(=O)=O)cc(-c3ccc(N4CCOCC4)nc3)c12` [Compound 57, N-(methanesulfonyl)-3-methyl-4-[6-(morpholin-4-yl)pyridin-3-yl]-1-[3-(trifluoromethyl)phenyl]-1H-pyrazolo[3,4-b]pyridine-6-carboxamide] the same measures were 440%, 657 nM, 219.65% and 1020 nM.
